For assay [1], the target named is 5-HT2A receptor (Homo sapiens (Human), UniProt P28223). The experiment in a line: Radioligand competition binding, affinity for 5-HT2A receptor ([3H]-ketanserin). The conditions noted are these: for binding selectivity, dopamine D2 receptor versus 5-HT2A receptor: Table 3 compared with Table 1; for Ki: [3H]-ketanserin, HEK-293T membranes. The procedure: The affinity of the compounds of the present invention for the 5-HT2A receptors was determined by the method of radioligand competition experiment. In the first step, a cell membrane component containing specific 5-HT2A receptor was prepared. A 10 cm dish was used for transfection with 10 ng of the 5-HT2A receptor and 40 μL of PEI. […] A vacuum pump was used to suck off the culture medium, 3 mL of lysis buffer was added to each well, and the cells were placed in a 4° C. freezer for 10 minutes. After the cells were detached, the cells were transferred to a 15 mL centrifuge tube and centrifuged at 1500 rpm for 5 minutes at 4° C., and the supernatant was discarded. The cell pellet was transferred to a tissue homogenizer, and 3 mL of lysis buffer was added and fully ground until the cells were broken. Then, cell suspension was equally divided into several EP tubes, centrifuged at 4° C. and 12000 rpm for 5 min, and the supernatant was discarded. The precipitate was the cell membrane component containing the 5-HT2A receptor. […] First, a standard binding buffer was added to the cell membrane component containing the 5-HT2A receptor, and the cell membrane was disrupted and resuspended with an electric tissue homogenizer. 30 μL of membrane protein suspension was added to each well of a 96-well plate. Then, 30 μL of different drugs were added to the 96-well plate from left to right to ensure that the final drug concentrations were 10^−5 M, 10^−6 M, 10^−7 M, 10^−8 M, 10^−9 M and 0 M, with two replicates per treatment. Next, 30 μL [^3H]-ketanserin was added to each well of the 96-well plate. The plate was incubated for 2 hours at room temperature in the dark. Detection. The machine reading value reflected the amount of [^3H]-ketanserin bound on the membrane, and after further data processing, the affinity Ki value of different compounds for 5-HT2A receptor was obtained.
Background: In a radioligand displacement assay an active substance lowers the binding of a labelled ligand.

In assay [2] the target is dopamine D2 receptors (Homo sapiens (Human), UniProt P14416). Description: G protein Gαi1-γ9 dissociation BRET, dopamine D2 receptor functional activity. The format is cell-based. The following applies: for EC50: HEK-293T, I-1 to 19 n=3, I-20 to 27 single determination, read-out: Gai1 BRET EC50; for Emax: relative to the endogenous ligand dopamine, read-out: Gai1 BRET Emax % ± SEM. For orientation: In BRET a luciferase serves as donor, and the signal depends on an acceptor being close.
dopamine D2 receptors, sequence (P14416 whole entry): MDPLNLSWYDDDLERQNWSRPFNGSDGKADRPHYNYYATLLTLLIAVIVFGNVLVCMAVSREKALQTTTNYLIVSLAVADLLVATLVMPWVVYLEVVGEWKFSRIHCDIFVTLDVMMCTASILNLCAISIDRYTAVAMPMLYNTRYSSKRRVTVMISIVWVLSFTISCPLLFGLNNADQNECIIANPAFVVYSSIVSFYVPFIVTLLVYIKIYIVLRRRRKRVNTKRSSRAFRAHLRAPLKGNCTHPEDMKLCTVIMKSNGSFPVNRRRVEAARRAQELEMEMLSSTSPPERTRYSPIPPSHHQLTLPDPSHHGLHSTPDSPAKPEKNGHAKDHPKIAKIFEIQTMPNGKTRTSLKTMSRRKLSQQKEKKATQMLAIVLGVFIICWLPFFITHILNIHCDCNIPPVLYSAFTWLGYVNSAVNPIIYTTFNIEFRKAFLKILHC

5-HT2A receptor, sequence (P28223 whole entry): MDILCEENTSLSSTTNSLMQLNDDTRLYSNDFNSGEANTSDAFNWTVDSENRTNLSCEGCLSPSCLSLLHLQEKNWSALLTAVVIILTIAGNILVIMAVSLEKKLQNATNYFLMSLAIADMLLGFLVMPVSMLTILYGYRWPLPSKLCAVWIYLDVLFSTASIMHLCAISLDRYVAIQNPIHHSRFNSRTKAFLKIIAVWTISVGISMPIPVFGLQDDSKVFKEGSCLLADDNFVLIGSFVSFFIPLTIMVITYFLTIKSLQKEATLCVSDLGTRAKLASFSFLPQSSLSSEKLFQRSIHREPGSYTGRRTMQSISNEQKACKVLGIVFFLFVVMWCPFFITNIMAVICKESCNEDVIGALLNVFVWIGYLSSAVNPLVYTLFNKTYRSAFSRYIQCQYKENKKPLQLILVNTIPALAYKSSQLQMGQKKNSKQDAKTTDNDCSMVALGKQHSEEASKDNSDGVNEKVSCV

One may read the Ki as the equilibrium dissociation constant of an inhibitor or competing ligand from its target. A high value points to a looser hold on the target. In general, EC50 refers to the midpoint of the concentration-response curve. As usually defined, the Emax is the greatest response seen or fitted, relative to the assay's reference. `O=c1ccc2ccc(OCCCCN3CCN4c5cccc6[nH]cc(c56)CC4C3)cc2[nH]1` (racemic) [Compound I-2, 7-(4(4,6,6a,7,9,10-hexahydro-8H-pyrazino[1,2-a]pyrrolo[4,3,2-de]quinolin-8-yl)butoxy)quinolin-2(1H)-one]: in assay [1], the “binding selectivity, dopamine D2 receptor versus 5-HT2A receptor” value (from here on “binding selectivity”) is given as “more than 100 times” and the affinity, expressed as Ki, was 0.907 µM. For the same compound, in assay [2], the EC50 came to 0.0148 µM and the Emax stood at 101%.

Regarding `CN(C)C(=O)N[C@H]1CC[C@H](CCN2CCN3c4cccc5[nH]cc(c45)C[C@@H]3C2)CC1` [(+)-I-10], in assay [1], the “affinity for 5-HT2A receptor (in words)” value was “very weak affinity” and the inhibitory constant (Ki) amounted to 2.48 µM. Besides, in assay [2], the EC50 was 0.00955 µM and the Emax came out at 86%.

For `CN(C)C(=O)N[C@H]1CC[C@H](CCN2CCN3c4cccc5[nH]cc(c45)C[C@H]3C2)CC1` [(−)-I-10], in assay [1], the “affinity for 5-HT2A receptor (in words)” value is reported as “very weak affinity”; the “binding selectivity” value is “more than 100 times”; the Ki was found to be 2.63 µM. In assay [2], the EC50 is 0.00138 µM and the Emax worked out at 78%.

For `O=C1CCc2ccc(OCCCCN3CCN4c5cccc6[nH]cc(c56)CC4C3)cc2N1` (stereo not drawn) [Compound I-1, 7-(4(4,6,6a,7,9,10-hexahydro-8H-pyrazino[1,2-a]pyrrolo[4,3,2-de]quinolin-8-yl)butoxy)-3,4-dihydroquinolin-2(1H)-one], in assay [1], the “affinity for 5-HT2A receptor (in words)” value is given as “very weak affinity”; the “binding selectivity” value is given as “more than 100 times”; the Ki came out at 3.64 µM. Also, in assay [2], the EC50 stood at 0.0162 µM and the Emax was 100%.

(Values after patent publication US20240124456A1, “AZA-ERGOLINE DERIVATIVE AND PREPARATION METHOD THEREFOR AND APPLICATION THEREOF” (SHANGHAITECH UNIVERSITY, priority 2021, published 2024).)
